Structures are written as SMILES. pIC50: −log10 of the molar value.

The target in this assay is T1, enzyme ACAT-1 (Homo sapiens, UniProt P35610).
T1 construct: endogenous in cells; host or cells: HepG2
T1 sequence (P35610 1-550): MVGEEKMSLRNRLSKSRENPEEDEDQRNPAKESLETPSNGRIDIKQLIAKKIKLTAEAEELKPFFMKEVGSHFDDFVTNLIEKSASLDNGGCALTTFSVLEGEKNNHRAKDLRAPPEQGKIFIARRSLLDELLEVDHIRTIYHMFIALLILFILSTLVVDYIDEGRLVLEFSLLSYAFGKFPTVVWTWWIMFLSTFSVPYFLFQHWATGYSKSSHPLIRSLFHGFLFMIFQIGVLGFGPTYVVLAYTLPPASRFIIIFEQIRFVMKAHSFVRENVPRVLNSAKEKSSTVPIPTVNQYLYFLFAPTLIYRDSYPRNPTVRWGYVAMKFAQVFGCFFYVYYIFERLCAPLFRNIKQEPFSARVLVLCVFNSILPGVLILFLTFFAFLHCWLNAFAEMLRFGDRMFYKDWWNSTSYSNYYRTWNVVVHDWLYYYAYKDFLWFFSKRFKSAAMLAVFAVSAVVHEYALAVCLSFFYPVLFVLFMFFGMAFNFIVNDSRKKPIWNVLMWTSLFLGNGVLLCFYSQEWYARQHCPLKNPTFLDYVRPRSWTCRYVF
The experiment in a line: HepG2 NBD-cholesterol fluorescence test of inhibitory activity towards ACAT-1 (SOAT-1). It is filed as cell-based. To be noted: HepG2 cells, NBD-cholesterol 1 μg/ml, incubation 6 hours at 37° C., fluorescence read (490/540 nm). The method, then:
The compounds (I) according to the invention, and also the pharmaceutically acceptable salts, solvates and/or hydrates thereof, have inhibitory properties on the enzyme SOAT-1. This inhibitory activity on the enzyme SOAT-1 is measured according to a HepG2 primary enzymatic test, as described in Example 11.
The compounds of formula (I) according to the invention were subjected to a test for evaluating their inhibitory activity towards the enzyme ACAT-1, inspired by the following publication: “Identification of ACAT1- and ACAT2-specific inhibitors using a novel, cell based fluorescence assay: individual ACAT uniqueness”, J. Lipid. Res. (2004) vol. 45, pages 378-386.
The principle of this test is based on the use of NBD-cholesterol, a cholesterol analogue whose fluorescence depends on its environment. When this molecule is in a polar environment, it is weakly fluorescent, whereas in a non-polar environment, it is strongly fluorescent. Free NBD-cholesterol becomes inserted in cell membranes and is weakly fluorescent in this polar environment. When NBD-cholesterol is esterified with ACAT, the NBD-cholesterol ester enters non-polar lipid droplets and is then strongly fluorescent.
The method below is applied: HepG2 cells are incubated in the presence of NBD-cholesterol (1 μg/ml) and of the test compound of formula (I) in black transparent-bottomed 96-well plates, at a rate of 30 000 cells per well. After incubation for 6 hours at 37° C. under 5% CO2, the medium is removed by turning upside-down and the cells are washed with twice 100 μl of PBS. After addition of 50 μl of lysis buffer (10 mM NaPO4, 1% Igepal), the plates are shaken for 5 minutes and the fluorescence is read (excitation at 490 nm, emission at 540 nm) on a Fusion machine (Perkin-Elmer).
`Cc1ccc(N2C(=O)N(CC(=O)Nc3c(C(C)C)cccc3C(C)C)C(=O)C23CCOCC3)cn1` [compound (5)] showed a negative logarithm of the IC50 (pIC50) of 7.10.

`COc1ccc(N2C(=O)N(CC(=O)Nc3c(C(C)C)cccc3C(C)C)C(=O)C23CCCCC3)cn1` [compound (2)] gave a pIC50 of 8.52.

On to `Cc1ccc(N2C(=O)N(CC(=O)Nc3c(C(C)C)cccc3C(C)C)C(=O)C23CCCCC3)cn1` [compound (4), N-(2,6-Diisopropylphenyl)-2-[1-(6-methyl-pyridin-3-yl)-2,4-dioxo-1,3-diazaspiro[4.5]dec-3-yl]-acetamide], for which the pIC50 is 9.22.

`Cc1cnc(N2C(=O)N(CC(=O)Nc3c(C(C)C)cccc3C(C)C)C(=O)C23CCCCC3)cn1` [compound (3)] showed a pIC50 of 8.26. This pIC50 is 0.96 log units lower than that of the molecule before.

On to `CC(C)c1cccc(C(C)C)c1NC(=O)CN1C(=O)N(c2cccnc2)C2(CCCCC2)C1=O` [compound (1)], for which the pIC50 is 8.05.

For the origin of these results see patent US8445523B2, “Dioxo-imidazolidine derivatives, which inhibit the enzyme SOAT-1, and pharmaceutical and cosmetic compositions containing them” (Galderma Research & Development, priority 2009, dated 2013).
